Assay results: patent US20230212152A1, “INHIBITORS OF CYSTEINE PROTEASES AND METHODS OF USE THEREOF” (priority 2020, published 2023)
Like-named read-outs stand apart in the source and are kept apart here.

Columns and labels:
SARS-CoV2 Mpro = SARS-CoV2 Mpro (Severe acute respiratory syndrome coronavirus 2, UniProt P0DTD1); test: SARS-CoV2 Mpro enzymatic assay; assay type: biochemical; details: 25 nM Mpro, 25 μM substrate
229E Mpro = target: T1, 229E Mpro (Human coronavirus 229E, UniProt P0C6X1); test: 229E Mpro assay (Table 3); assay type: biochemical, HCoV 229E
T1 construct: 229E Mpro
T1 sequence (P0C6X1 2966-3267): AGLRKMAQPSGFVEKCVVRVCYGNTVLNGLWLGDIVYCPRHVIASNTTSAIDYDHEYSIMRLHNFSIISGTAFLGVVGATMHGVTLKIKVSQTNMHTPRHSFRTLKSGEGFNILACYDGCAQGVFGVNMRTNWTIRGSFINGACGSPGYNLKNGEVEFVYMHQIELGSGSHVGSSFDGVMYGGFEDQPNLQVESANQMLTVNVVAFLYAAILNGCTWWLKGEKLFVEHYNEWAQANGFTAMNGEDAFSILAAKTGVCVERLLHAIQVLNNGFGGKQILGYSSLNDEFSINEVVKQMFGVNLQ
Procedure: Compounds are assayed using standard methods to assess compound activity and IC50. […] The assay buffer contains 20 mM of Tris-HCl (pH 7.3), 100 mM of NaCl, 1 mM of EDTA, 5 mM of TCEP and 0.1% BSA.

Row | SMILES | IC50 (SARS-CoV2 Mpro) | EC50 (229E Mpro; 229E Mpro EC50) | EC50 (229E Mpro; read-out: 229E Mpro EC50)
1 | CC1(C)C[C@@H](C[C@@H](C#N)NC(=O)[C@@H]2[C@@H]3[C@H](CN2C(=O)[C@@H](NC(=O)C(F)(F)F)C(C)(C)C)C3(C)C)C(=O)N1 [Compound 3075, (1R,2S,5S)-N-((S)-1-cyano-2-((R)-5,5-dimethyl-2-oxopyrrolidin-3-yl)ethyl)-3-((S)-3,3-dimethyl-2-(2,2,2-trifluoroacetamido)butanoyl)-6,6-dimethyl-3-azabicyclo[3.1.0]hexane-2-carboxamide] | < 2 µM | 10 to 30 µM | 
2 | COc1cccc2[nH]c(C(=O)N[C@@H](CC3CC3)C(=O)N[C@H](C#N)C[C@@H]3CCCNC3=O)cc12 (single isomer, unassigned) [491A (Isomer 1)] |  | > 30 µM | 
3 | CC(C)(C)C[C@H](NC(=O)[C@@H](NC(=O)C(F)(F)F)C(C)(C)C)C(=O)N[C@H](C#N)C[C@@H]1CC(C)(C)NC1=O [Compound 3069, (S)-N-((S)-1-cyano-2-((R)-5,5-dimethyl-2-oxopyrrolidin-3-yl)ethyl)-2-((S)-3,3-dimethyl-2-(2,2,2-trifluoroacetamido)butanamido)-4,4-dimethylpentanamide] | < 2 µM | > 30 µM | 
4 | CC1(C)C[C@@H](C[C@@H](C#N)NC(=O)[C@@H]2[C@@H]3[C@H](CN2C(=O)[C@@H](NC(=O)C(F)(F)F)C(C)(C)C)C3(C)C)C(=O)N1 (single isomer, unassigned) [3075 (Isomer 1)] | < 2 µM | > 30 µM | 
5 | Cc1ccn([C@H](CC2CC2)C(=O)N[C@H](C#N)C[C@@H]2CCNC2=O)c(=O)c1NC(=O)OC(C)(C)C (single isomer, unassigned) [591 (Isomer 1)] |  |  | > 30 µM
6 | COc1cccc2[nH]c(C(=O)N3C[C@H](C4CCCCC4)C[C@H]3C(=O)N[C@H](C#N)C[C@@H]3CCNC3=O)cc12 [Compound 167, (2S,4S)-N-((S)-1-cyano-2-((S)-2-oxopyrrolidin-3-yl)ethyl)-4-cyclohexyl-1-(4-methoxy-1H-indole-2-carbonyl)pyrrolidine-2-carboxamide] |  |  | 2 to 10 µM
7 | COc1cc(Cl)c2[nH]c(C(=O)N3CC4(CCCCC4)CC3C(=O)N[C@H](C#N)C[C@@H]3CCNC3=O)cc2c1 (single isomer, unassigned) [896 (Isomer 2)] | > 30 µM |  | > 30 µM
8 | CC1(C)C[C@@H](C[C@@H](C#N)NC(=O)[C@@H]2[C@@H]3[C@H](CN2C(=O)[C@@H](NC(=O)C(F)(F)F)C(C)(C)C)C3(C)C)C(=O)N1 (single isomer, unassigned) [3075 (Isomer 2)] | < 2 µM | 10 to 30 µM | 
9 | CC1(C)C[C@@H](C[C@@H](C#N)NC(=O)C2CC3(CCC3)CN2C(=O)[C@@H](NC(=O)C(F)(F)F)C(C)(C)C)C(=O)N1 (single isomer, unassigned) [3071a (Isomer 2)] | > 30 µM | > 30 µM | 
10 | CC(C)(C)[C@H](NC(=O)C(F)(F)F)C(=O)N1CC2(CCCCC2)C[C@H]1C(=O)N[C@H](C#N)C[C@@H]1CC2(CC2)NC1=O [Compound 3041] | < 2 µM | < 2 µM | 
11 | CN(C(=O)[C@@H](NC(=O)C(F)(F)F)C(C)(C)C)[C@@H](CC1CC1)C(=O)N[C@H](C#N)C[C@@H]1CCCNC1=O [Compound 3131] | < 2 µM | 10 to 30 µM | 
12 | COc1cccc2[nH]c(C(=O)N[C@@H](CC3CC3)C(=O)N[C@H](C#N)C[C@@H]3CCCNC3=O)cc12 (single isomer, unassigned) [271A (Isomer 1)] |  |  | > 30 µM
13 | CC(C)(C)[C@H](NC(=O)C(F)(F)F)C(=O)N1CC2(CCC2)CC1C(=O)N[C@H](C#N)C[C@@H]1CC2(CC2)NC1=O (stereo partly drawn) [Compound 3039b] | < 2 µM | < 2 µM | 
14 | COc1cccc2[nH]c(C(=O)N[C@H](CC3CC3)C(=O)N[C@H](C#N)C[C@@H]3CCCNC3=O)cc12 (single isomer, unassigned; isomer 2) [491A (Isomer 2)] |  |  | < 2 µM
15 | CC(C)(C)[C@H](NC(=O)C(F)(F)F)C(=O)N1C[C@H]2[C@@H]([C@H]1C(=O)N[C@H](C#N)C[C@@H]1CCCNC1=O)C2(C)C [Compound 3133, (1R,2S,5S)-N-[(1S)-1-cyano-2-[(3S)-2-oxo-3-piperidyl]ethyl]-3-[(2S)-3,3-dimethyl-2-[(2,2,2-trifluoroacetyl)amino]butanoyl]-6,6-dimethyl-3-azabicyclo[3.1.0]hexane-2-carboxamide] | < 2 µM | < 2 µM | 
16 | Cc1ccn(C(CC2CC2)C(=O)N[C@H](C#N)C[C@@H]2CCNC2=O)c(=O)c1NCC(F)(F)F (single isomer, unassigned) [451 (Isomer 2)] |  | 10 to 30 µM | 
17 | N#CC(CC1CCNC1=O)NC(=O)C1CCc2ccc(NCC(=O)Oc3ccccc3)c(=O)n21 (single isomer, unassigned) [483 (Isomer 2)] |  | > 30 µM | 

Row | SMILES | IC50 (SARS-CoV2 Mpro) | EC50 (229E Mpro; 229E Mpro EC50) | EC50 (229E Mpro; read-out: 229E Mpro EC50)
18 | COc1cccc2[nH]c(C(=O)N3CC4(CCCCC4)CC3C(=O)N[C@H](C#N)C[C@@H]3CCCNC3=O)cc12 (single isomer, unassigned) [603a (Isomer 2)] |  |  | > 30 µM
19 | CC(C)(C)[C@H](NC(=O)C(F)(F)F)C(=O)N1C[C@H]2[C@@H]([C@H]1C(=O)N[C@H](C#N)C[C@@H]1CC3(CC3)NC1=O)C2(C)C [Compound 3043] | < 2 µM | < 2 µM | 
20 | COc1cc(Cl)c2[nH]c(C(=O)N3CC4(CCCCC4)CC3C(=O)N[C@H](C#N)C[C@@H]3CCNC3=O)cc2c1 (single isomer, unassigned) [896 (Isomer 1)] | < 2 µM |  | < 2 µM
21 | N#C[C@H](C[C@@H]1CCNC1=O)NC(=O)[C@@H]1CCc2ccc(NCC(=O)O)c(=O)n21 [Compound 501, 2-[[(3S)-3-[[(1S)-1-cyano-2-[(3S)-2-oxopyrrolidin-3-yl]ethyl]carbamoyl]-5-oxo-2,3-dihydro-1H-indolizin-6-yl]amino]acetic acid] |  |  | > 30 µM
22 | CC1(C)CC(C[C@@H](C#N)NC(=O)[C@H](CC2CC2)NC(=O)c2cc3cccc(Cl)c3[nH]2)C(=O)N1 (single isomer, unassigned) [1053 (Isomer 2)] |  |  | 10 to 30 µM
23 | CC1(C)C[C@@H](C[C@@H](C#N)NC(=O)[C@H](CC2CC2)NC(=O)[C@@H](NC(=O)C(F)(F)F)C(C)(C)C)C(=O)N1 [Compound 3065, (S)-N-((S)-1-(((S)-1-cyano-2-((R)-5,5-dimethyl-2-oxopyrrolidin-3-yl)ethyl)amino)-3-cyclopropyl-1-oxopropan-2-yl)-3,3-dimethyl-2-(2,2,2-trifluoroacetamido)butanamide] | < 2 µM | > 30 µM | 
24 | CC1(C)C[C@@H](C[C@@H](C#N)NC(=O)C2CC3(CCC3)CN2C(=O)[C@@H](NC(=O)C(F)(F)F)C(C)(C)C)C(=O)N1 (single isomer, unassigned) [3071a (Isomer 1)] | < 2 µM | 2 to 10 µM | 
25 | CC(C)(C)[C@H](NC(=O)C(F)(F)F)C(=O)N[C@@H](CC1CC1(F)F)C(=O)N[C@H](C#N)C[C@@H]1CC2(CC2)NC1=O (stereo partly drawn) [Compound 3045] | < 2 µM | < 2 µM | 
26 | CC(C)(C)[C@H](NC(=O)C(F)(F)F)C(=O)N1CC2(CCC2)CC1C(=O)N[C@H](C#N)C[C@@H]1CC2(CC2)NC1=O (single isomer, unassigned) [3039a (Isomer 1)] | < 2 µM | 2 to 10 µM | 
27 | CC1(C)C[C@@H](C[C@@H](C#N)NC(=O)[C@@H]2CC3(CCCCC3)CN2C(=O)[C@@H](NC(=O)C(F)(F)F)C(C)(C)C)C(=O)N1 [Compound 3073, (3S)-N-[(1S)-1-cyano-2-[(3R)-5,5-dimethyl-2-oxo-pyrrolidin-3-yl]ethyl]-2-[(2S)-3,3-dimethyl-2-[(2,2,2-trifluoroacetyl)amino]butanoyl]-2-azaspiro[4.5]decane-3-carboxamide] | < 2 µM | 2 to 10 µM | 
28 | CC(C)(C)[C@H](NC(=O)C(F)(F)F)C(=O)N1C[Si](C)(C)C[C@H]1C(=O)N[C@H](C#N)C[C@@H]1CC2(CC2)NC1=O [Compound 3135] | < 2 µM |  | < 2 µM
29 | COc1cccc2[nH]c(C(=O)N3CC4(CCC4)CC3C(=O)N[C@H](C#N)C[C@@H]3CCNC3=O)cc12 (single isomer, unassigned) [399A (Isomer 2)] |  |  | 10 to 30 µM
30 | CC(C)(C)C[C@H](NC(=O)[C@@H](NC(=O)C(F)(F)F)C(C)(C)C)C(=O)N[C@H](C#N)C[C@@H]1CCCNC1=O [Compound 3129, (S)-N-((S)-1-cyano-2-((S)-2-oxopiperidin-3-yl)ethyl)-2-((S)-3,3-dimethyl-2-(2,2,2-trifluoroacetamido)butanamido)-4,4-dimethylpentanamide] | < 2 µM | < 2 µM | 
31 | CC(C)(C)C[C@H](NC(=O)[C@@H](NC(=O)C(F)(F)F)C(C)(C)C)C(=O)N[C@H](C#N)C[C@@H]1CC2(CC2)NC1=O [Compound 3037] | < 2 µM | < 2 µM | 
32 | COc1cccc2[nH]c(C(=O)N3C[C@H]4CC[C@H]4[C@@H]3C(=O)N[C@H](C#N)C[C@@H]3CCNC3=O)cc12 (single isomer, unassigned) [547 (Isomer 2)] |  |  | < 2 µM
33 | N#C[C@H](C[C@@H]1CCNC1=O)NC(=O)[C@@H]1CS[C@H]2CC[C@H](NCC(F)(F)F)C(=O)N21 [Compound 455, (3R,6S,8aS)-N-[(1S)-1-cyano-2-[(3S)-2-oxopyrrolidin-3-yl]ethyl]-5-oxo-6-(2,2,2-trifluoroethylamino)-2,3,6,7,8,8a-hexahydrothiazolo[3,2-a]pyridine-3-carboxamide] |  |  | > 30 µM
34 | Cc1ccn([C@H](CC2CC2)C(=O)N[C@H](C#N)C[C@@H]2CCNC2=O)c(=O)c1NCC(F)(F)F (single isomer, unassigned) [451 (Isomer 1)] |  |  | > 30 µM
